According to patent US6706663B2, “Herbicidal 3-heterocyclic substituted benzisothiazole and benzisoxazole compounds” (Wyeth, priority 2000, dated 2004):

Legend:
SETVI (Setaria viridis) [1] = assay: Postemergence herbicidal evaluation; assay type: in vivo, (L.) Beau; details: postemergence
How it was run: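 Seedlings about two weeks old were sprayed with compound in 50/50 acetone/water plus 0.5% TWEEN 20, at the equivalent of about 0.0040 to 1.000 kg/ha. Plants were kept in a greenhouse and visually rated 0-9 against a control four to five weeks after treatment. Repeat tests were averaged.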

GALAP (Galium aparine) = assay: Postemergence herbicidal evaluation; assay type: in vivo; details: postemergence
How it was run: (§1)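 Seedlings grown about two weeks in flats, sprayed, then kept under standard greenhouse care. Rated visually 4–5 weeks after treatment on a 0–9 scale (stand, vigour, malformation, size, chlorosis, overall appearance) relative to untreated control; repeat tests averaged.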

[2] = test system: ABUTH (Abutilon theophrasti); assay: Preemergence herbicidal evaluation; assay type: in vivo, Medic.; details: rated 4-5 weeks after treatment
[3] = test system: MOOVA (Monochoria vaginalis); assay: Flooded paddy, preemergence weed control; assay type: in vivo, Presl.; details: rated 3-4 weeks after treatment, 0-9 rating scale
How it was run: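 Visual 0–9 ratings versus controls scored stand, vigor, malformation, size, chlorosis and overall appearance. Plants grew from seeds or propagating organs sown 0.5 cm deep in silt loam, with water held 1.5–3 cm above the soil for the whole test under greenhouse care.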

SETVI (Setaria viridis) [4] = assay: Preemergence herbicidal evaluation; assay type: in vivo, (L.) Beau; details: rated 4-5 weeks after treatment
How it was run: (§2)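 Seeds planted in potting soil cups and sprayed preemergence with aqueous acetone compound solution. Greenhouse-grown; rated 4–5 weeks after treatment on a 0-9 visual scale (stand, vigor, malformation, size, chlorosis, appearance) versus control.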

[5] = test system: ECHCG (Echinochloa crus-galli); assay: Preemergence herbicidal evaluation; assay type: in vivo, (L.) Beau; details: rated 4-5 weeks after treatment
How it was run: as §2

ORYSAT (Rice, Tebonnet) = assay: Flooded paddy, post-transplant rice tolerance; assay type: in vivo, Oryza sativa, (L.) Tebonnet; details: flooded paddy, post-transplant rice, rated 3-4 weeks after treatment, 0-9 rating scale
How it was run: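 Ten-day-old seedlings, 2/pot, silt loam; flood kept 1.5–3 cm over soil; herbicide applied post-transplant; greenhouse; score 0–9 visual vs control.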

[6] = test system: CYPSE (Cyperus serotinus); assay: Flooded paddy, preemergence weed control; assay type: in vivo, Rottb.; details: rated 3-4 weeks after treatment, 0-9 rating scale
How it was run: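 Seeds or propagules were planted 0.5 cm deep in silt loam and flooded to 1.5–3 cm. Compounds in 50/50 v/v aqueous/acetone were pipetted into the flood water at about 0.0080 to 0.1250 kg/ha. After 3–4 weeks in the greenhouse, effect was rated visually on a 0–9 scale versus untreated control.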

[7] = test system: IPOHE (Ipomoea hederacea); assay: Postemergence herbicidal evaluation; assay type: in vivo, (L.) Jacq.; details: postemergence
How it was run: as §1

[8] = test system: TRZAWR (Wheat, Winter, cv Riband); assay: Postemergence herbicidal evaluation; assay type: in vivo, Triticum aestivum; details: postemergence
How it was run: as §1

[9] = test system: GLXMAW (Soybean, Williams); assay: Postemergence herbicidal evaluation; assay type: in vivo, Glycine max, (L.) Merr. cv Williams; details: postemergence
How it was run: as §1

[10] = test system: ABUTH (Abutilon theophrasti); assay: Postemergence herbicidal evaluation; assay type: in vivo, Medic.; details: postemergence
How it was run: as §1

ZEAMX (Corn, Field) = assay: Preemergence herbicidal evaluation; assay type: in vivo, Zea mays, L.; details: rated 4-5 weeks after treatment
[11] = test system: CHEAL (Chenopodium album); assay: Preemergence herbicidal evaluation; assay type: in vivo, L.; details: rated 4-5 weeks after treatment
How it was run: as §2

[12] = test system: AMBEL (Ambrosia artemisifolia); assay: Preemergence herbicidal evaluation; assay type: in vivo, L.; details: rated 4-5 weeks after treatment
How it was run: as §2

[13] = test system: CASOB (Cassia obtusifolia); assay: Preemergence herbicidal evaluation; assay type: in vivo, L.; details: rated 4-5 weeks after treatment
How it was run: as §2

`Cn1c(C(F)(F)F)cc(=O)n(-c2ccc3snc(C4(C)OCCO4)c3c2)c1=O` [Compound 54, 1-methyl-3-[3-(2-methyl-1,3-dioxolan-2-yl)-1,2-benzisothiazol-5-yl]-6-(trifluoromethyl)uracil] gave an SETVI herbicidal rating (SETVI (Setaria viridis) [1]; rate 0.0320 kg/ha) of 3.0, an SETVI herbicidal rating (SETVI (Setaria viridis) [1]; rate 0.0620 kg/ha) of 9.0 and an SETVI herbicidal rating (SETVI (Setaria viridis) [1]; rate 0.1250 kg/ha) of 8.0. It also gave a GALAP herbicidal rating (GALAP (Galium aparine); rate 0.0320 kg/ha) of 5.0, a GALAP herbicidal rating (GALAP (Galium aparine); rate 0.0620 kg/ha) of 9.0 and a GALAP herbicidal rating (GALAP (Galium aparine); rate 0.1250 kg/ha) of 9.0. The “Preemergence herbicidal rating ABUTH” value ([2]; Rate 0.0620 kg/ha) was 9.0, the “Preemergence herbicidal rating ABUTH” value ([2]; Rate 0.1250 kg/ha) was 9.0 and the “Preemergence herbicidal rating ABUTH” value ([2]; Rate 0.2500 kg/ha) was 9.0. For the same compound, the “herbicidal rating, MOOVA” value ([3]; rate 0.0320 kg/ha) was 9.0, the “herbicidal rating, MOOVA” value ([3]; rate 0.1250 kg/ha) was 9.0 and the “Preemergence herbicidal rating SETVI” value (SETVI (Setaria viridis) [4]; Rate 0.0620 kg/ha) was 9.0. The “Preemergence herbicidal rating SETVI” value (SETVI (Setaria viridis) [4]; Rate 0.1250 kg/ha) was 9.0, the “Preemergence herbicidal rating SETVI” value (SETVI (Setaria viridis) [4]; Rate 0.2500 kg/ha) was 9.0 and the “Preemergence herbicidal rating ECHCG” value ([5]; Rate 0.0620 kg/ha) was 9.0. The “Preemergence herbicidal rating ECHCG” value ([5]; Rate 0.1250 kg/ha) was 9.0, the “Preemergence herbicidal rating ECHCG” value ([5]; Rate 0.2500 kg/ha) was 9.0 and the “herbicidal rating, ORYSAT (rice tolerance)” value (“herbicidal rating, ORYSAT” for short) (ORYSAT (Rice, Tebonnet); rate 0.0080 kg/ha) was 7.0. The “herbicidal rating, ORYSAT” value (ORYSAT (Rice, Tebonnet); rate 0.0320 kg/ha) was 8.5, the “herbicidal rating, ORYSAT” value (ORYSAT (Rice, Tebonnet); rate 0.1250 kg/ha) was 9.0 and the “herbicidal rating, CYPSE” value ([6]; rate 0.0320 kg/ha) was 9.0. For the same compound, the “herbicidal rating, CYPSE” value ([6]; rate 0.1250 kg/ha) was 9.0, the IPOHE herbicidal rating ([7]; rate 0.0320 kg/ha) was 9.0 and the IPOHE herbicidal rating ([7]; rate 0.0620 kg/ha) was 9.0. For the same compound, the IPOHE herbicidal rating ([7]; rate 0.1250 kg/ha) was 9.0, the TRZAWR herbicidal rating ([8]; rate 0.0320 kg/ha) was 5.0 and the TRZAWR herbicidal rating ([8]; rate 0.0620 kg/ha) was 6.5. It also gave a TRZAWR herbicidal rating ([8]; rate 0.1250 kg/ha) of 7.5, a GLXMAW herbicidal rating ([9]; rate 0.0320 kg/ha) of 8.0 and a GLXMAW herbicidal rating ([9]; rate 0.0620 kg/ha) of 8.5. The GLXMAW herbicidal rating ([9]; rate 0.1250 kg/ha) was 9.0, the ABUTH herbicidal rating ([10]; rate 0.0320 kg/ha) was 9.0 and the ABUTH herbicidal rating ([10]; rate 0.0620 kg/ha) was 9.0. For the same compound, the ABUTH herbicidal rating ([10]; rate 0.1250 kg/ha) was 9.0, the “Preemergence herbicidal rating ZEAMX” value (ZEAMX (Corn, Field); Rate 0.0620 kg/ha) was 8.0 and the “Preemergence herbicidal rating ZEAMX” value (ZEAMX (Corn, Field); Rate 0.1250 kg/ha) was 8.5. For the same compound, the “Preemergence herbicidal rating ZEAMX” value (ZEAMX (Corn, Field); Rate 0.2500 kg/ha) was 9.0, the “Preemergence herbicidal rating CHEAL” value ([11]; Rate 0.0620 kg/ha) was 9.0 and the “Preemergence herbicidal rating CHEAL” value ([11]; Rate 0.1250 kg/ha) was 9.0. The “Preemergence herbicidal rating CHEAL” value ([11]; Rate 0.2500 kg/ha) was 9.0, the “Preemergence herbicidal rating AMBEL” value ([12]; Rate 0.0620 kg/ha) was 9.0 and the “Preemergence herbicidal rating AMBEL” value ([12]; Rate 0.1250 kg/ha) was 9.0. The “Preemergence herbicidal rating AMBEL” value ([12]; Rate 0.2500 kg/ha) was 9.0, the “Preemergence herbicidal rating CASOB” value ([13]; Rate 0.0620 kg/ha) was 9.0 and the “Preemergence herbicidal rating CASOB” value ([13]; Rate 0.1250 kg/ha) was 9.0. For the same compound, the “Preemergence herbicidal rating CASOB” value ([13]; Rate 0.2500 kg/ha) was 9.0.
